This test relates to hPSCs. Briefly: sequential differentiation of hPSCs into endothelial cells on collagen IV, EC marker expression by flow cytometry / immunofluorescence. The test is classed as cell-based, human. The procedure:
In the inventive method, hPSCs were cultured at a concentration of 1.25×10^4 per cm^2 on collagen IV plates for 12 days. In the “direct” method, the cells were treated with VEGF for the entire time. With the “sequential” method, the cells were supplemented with 10% serum and were not treated with VEGF until day 6. See FIG. 1 for a comparison of the protocols.
In our sequential method, hPSCs were cultured on collagen IV plates in media supplemented with 10% serum. After 6 days in culture, cells were strained and re-cultured in media supplemented with 50 ng/ml vascular endothelial growth factor (VEGF). Cells which were differentiated via direct means were cultured in the VEGF-supplemented media for all 12 days. EC markers were examined via immunofluorescence microscopy and flow cytometry. We tested hESC line, H9, as well as hiPSC line, MR31, which was derived from normal, fetal fibroblasts using three factors, Oct-4, Sox2, Klf4 (8, 9).
However, because sequentially-derived cells were only ˜5% VEcad+, we sought to improve upon the differentiation efficiency via biochemical means. To this end, we studied the addition of a TGFβ inhibitor, SB431542 (10) as well as angiogenic growth factors, bone morphogenetic protein-4 (BMP4) and Indian Hedgehog (lhh). For our TGFβ inhibitor studies, we examined the effects of SB431542 in the second half of differentiation plus high (50 ng/ml) or low (1 ng/ml) VEGF. […] Remarkably, VEcad expression increased regardless of high or low VEGF concentrations. […] Cells expressed approximately 1% Tra-1-60 indicating they were fully differentiated.
On the technique in general: In flow cytometry, cells or beads pass a laser one at a time.

The mark [1] stands for this setting: added in the second half of sequential differentiation plus VEGF, 12 days in culture.

Here are results for two molecules from patent US20180171291A1, “DERIVATION OF ENDOTHELIAL CELLS FROM MAMMALIAN PLUIRPOTENT STEM CELLS” (THE JOHNS HOPKINS UNIVERSITY, priority 2012, published 2018).

On to `NC(=O)c1ccc(-c2nc(-c3ccc4c(c3)OCO4)c(-c3ccccn3)[nH]2)cc1` [SB431542], for which, under setting [1], the “Expression of CD31” value is recorded as “increased” and the “Expression of KDR” value is given as “increased”. Further, the “expression of mature EC marker, VEcad” value (added in the second half of sequential differentiation plus high (50 ng/ml) or low (1 ng/ml) VEGF, 12 days in culture) is given as “dramatic increase”.

B1: BMP4: angiogenic growth factor, bone morphogenetic protein-4 (protein, UniProt P12644 293-408, looked up)
Bone morphogenetic protein 4: SPKHHSQRARKKNKNCRRHSLYVDFSDVGWNDWIVAPPGYQAFYCHGDCPFPLADHLNSTNHAIVQTLVNSVNSSIPKACCVPTELSAISMLYLDEYDKVVLKNYQEMVVEGCGCR
Turning to B1, the endothelial differentiation capacity result (compared with levels seen with SB431542 supplementation) is on record as “not able to augment”.
